Columns and labels:
[1] = test system: BTK signaling in Ramos cells; assay: BTK Ramos cellular assay (phosphorylation of BTK substrate PLCγ2); format: cell-based, human; conditions: Homo sapiens, 1 hour compound, anti-IgM stimulation, read-out: BTK Inhibition (Ramos cellular)
In short: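 Serum-starved Ramos Burkitt lymphoma cells treated 1 h with compound at 1, 0.1, 0.01 or 0.001 μM final. B-cell receptor stimulated with 1 μg anti-human IgM F(ab′)2, 10 min on ice. Lysates (16 μg protein) immunoblotted for phospho-PLCγ2.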

JAK3 kinase = JAK3 kinase (Homo sapiens (Human), UniProt P52333); assay: Mass spectrometry for Janus-3 kinase (JAK3); format: binding; conditions: 3 hrs at 10× excess, tryptic digestion
Chain of JAK3 kinase (P52333 whole entry): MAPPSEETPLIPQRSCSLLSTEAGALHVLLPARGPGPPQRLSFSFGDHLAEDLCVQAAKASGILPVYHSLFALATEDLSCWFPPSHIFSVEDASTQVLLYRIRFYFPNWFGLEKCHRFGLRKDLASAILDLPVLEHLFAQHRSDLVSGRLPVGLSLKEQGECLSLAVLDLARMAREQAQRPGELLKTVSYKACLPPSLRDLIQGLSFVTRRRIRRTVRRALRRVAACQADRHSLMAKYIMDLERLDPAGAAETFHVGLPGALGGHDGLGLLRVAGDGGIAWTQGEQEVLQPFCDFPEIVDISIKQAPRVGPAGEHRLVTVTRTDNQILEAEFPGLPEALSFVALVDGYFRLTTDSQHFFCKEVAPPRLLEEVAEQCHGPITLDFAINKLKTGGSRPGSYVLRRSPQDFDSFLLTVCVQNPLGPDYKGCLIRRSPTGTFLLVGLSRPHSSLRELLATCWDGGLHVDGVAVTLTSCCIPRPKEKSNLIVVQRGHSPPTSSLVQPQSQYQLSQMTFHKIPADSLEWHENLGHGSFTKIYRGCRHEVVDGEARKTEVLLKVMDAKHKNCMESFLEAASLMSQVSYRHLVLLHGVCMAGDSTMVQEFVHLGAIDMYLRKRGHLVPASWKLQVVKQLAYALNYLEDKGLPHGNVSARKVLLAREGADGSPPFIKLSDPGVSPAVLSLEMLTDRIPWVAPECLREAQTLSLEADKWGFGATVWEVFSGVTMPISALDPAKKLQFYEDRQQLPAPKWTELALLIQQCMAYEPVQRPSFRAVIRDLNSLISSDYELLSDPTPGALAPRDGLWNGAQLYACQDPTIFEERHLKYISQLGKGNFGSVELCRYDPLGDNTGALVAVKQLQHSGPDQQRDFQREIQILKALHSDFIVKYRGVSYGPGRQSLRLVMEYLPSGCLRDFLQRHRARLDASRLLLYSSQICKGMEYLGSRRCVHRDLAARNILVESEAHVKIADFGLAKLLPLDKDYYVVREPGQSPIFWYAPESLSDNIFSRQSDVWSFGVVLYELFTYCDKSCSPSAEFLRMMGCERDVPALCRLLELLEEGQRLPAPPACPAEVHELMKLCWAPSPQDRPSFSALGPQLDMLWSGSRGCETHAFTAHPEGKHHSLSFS
Procedure: Mass Spectrometry for Janus-3 Kinase (JAK3)
JAK3 kinase (33 pmols; Invitrogen) was incubated with (I-7) (327 pmols) for 3 hrs at 10× excess prior to tryptic digestion. Iodoacetamide was used as the alkylating agent after compound incubation. For tryptic digests a 5 ul aliquot (5.5 pmols) was diluted with 15 ul of 0.1% TFA prior to micro C18 Zip Tipping directly onto the MALDI target using alpha cyano-4-hydroxy cinnamic acid as the matrix (5 mg/ml in 0.1% TFA:Acetonitrile 50:50).
(§1) For tryptic digests the instrument was set in Reflectron mode with a pulsed extraction setting of 2200. Calibration was done using the Laser Biolabs Pep Mix standard ([…], 1296.69, 1672.92, 2093.09, 2465.20). For CID/PSD analysis the peptide was selected using cursors to set ion gate timing and fragmentation occurred at a laser power about 20% higher and He was used as the collision gas for CID. Calibration for fragments was done using the P14R fragmentation calibration for the Curved field Reflectron.

BTK in Ramos cells [2] = target: T1, BTK in Ramos cells (Homo sapiens (Human), UniProt Q06187); assay: BTK occupancy from in vitro samples by ELISA (Ramos cells); format: cell-based; conditions: ELISA with probe I-215
T1 sequence (Q06187 whole entry): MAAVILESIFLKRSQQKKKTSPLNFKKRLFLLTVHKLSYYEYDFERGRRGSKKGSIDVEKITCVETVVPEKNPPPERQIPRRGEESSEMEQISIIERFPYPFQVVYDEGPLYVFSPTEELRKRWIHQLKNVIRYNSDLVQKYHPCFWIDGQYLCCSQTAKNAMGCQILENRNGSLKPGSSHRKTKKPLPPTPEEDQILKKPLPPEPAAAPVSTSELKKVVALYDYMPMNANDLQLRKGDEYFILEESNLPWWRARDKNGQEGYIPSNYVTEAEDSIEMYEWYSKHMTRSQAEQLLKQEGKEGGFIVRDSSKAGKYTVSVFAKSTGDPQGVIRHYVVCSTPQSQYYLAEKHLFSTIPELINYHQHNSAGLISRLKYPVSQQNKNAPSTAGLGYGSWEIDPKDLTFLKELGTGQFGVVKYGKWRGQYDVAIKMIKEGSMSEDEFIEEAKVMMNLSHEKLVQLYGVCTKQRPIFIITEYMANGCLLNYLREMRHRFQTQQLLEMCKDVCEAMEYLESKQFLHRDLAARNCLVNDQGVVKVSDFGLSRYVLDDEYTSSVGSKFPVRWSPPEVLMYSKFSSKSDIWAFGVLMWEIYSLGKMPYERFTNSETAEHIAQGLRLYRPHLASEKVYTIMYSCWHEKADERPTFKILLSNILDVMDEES
Excerpt: Measuring BTK Occupancy from In Vitro Samples by ELISA
In order to determine the amount of free BTK in cell or tissue lysates, an ELISA protocol was employed that utilizes a biotinylated probe compound that binds only to free, unoccupied BTK. The conjugated biotin is captured on a streptavidin-coated ELISA plate and detected with a mouse anti-BTK antibody (Becton Dickinson, Franklin Lakes, N.J., USA) and a secondary goat anti-mouse HRP antibody (Zymed, South San Francisco, Calif., USA).
All samples were prepared with equal concentrations of Biorad lysis buffer (Hercules, Calif., USA), 0.5% bovine serum albumin in PBS with 0.05% Tween-20 to give a final concentration of 1 μM I-215. Samples were incubated in a mixing plate for 1 hr at room temperature while shaking to allow probe compound I-215 to bind to free BTK. After incubation with I-215, samples were added to a washed, streptavidin-coated ELISA plate (Pierce, Rockford, Ill., USA) and incubated for 1 hr at room temperature while shaking. The plate was then washed with PBS containing 0.05% Tween-20 using an automatic plate washer. Anti-BTK antibody was prepared at 1:1000 dilution in 0.5% BSA in PBS (0.05% Tween-20) and added to the ELISA plate. The plate was incubated for 1 hr at room temperature while shaking. The plate was washed as described above and the secondary HRP antibody was prepared at 1:5000 dilution in 0.5% BSA in PBS (0.05% Tween-20). The plate was incubated and washed as described above. TMB was added to the plate, and OD650 was monitored until reaching 1 OD unit. The reaction was then stopped with addition of H2SO4. The plate was analyzed using Gen 5 software, and a 4 Parameter Logistic curve was employed to quantitate samples. Recombinant BTK (Invitrogen, Carlsbad, Calif., USA) was used for the standard curve.
A concentration designated as “A” is greater than 1 nM; a concentration designated as “B” is greater than 10 nM; and a concentration designated as “C” is greater than 50 nM.

[3] = test system: BTK kinase activity (PLCγ2 phosphorylation) in Ramos cells; assay: Washout experiment with Ramos cells; format: cell-based, human; conditions: 100 nM compound for 1 hour, then washout
Procedure: Washout Experiment with Ramos Cells
Ramos cells were serum starved for one hour in RPMI media+1% glutamine at 37° C. After starvation, Ramos cells were treated with 100 nM compound diluted in serum free RPMI media for 1 hour. After compound treatment, the media was removed and cells were washed with compound-free media. Subsequently, Ramos cells were washed every 2 hours and resuspended in fresh compound-free media. Cells were collected at specified timepoints, treated with 1 ug anti-human IgM (Southern Biotech cat #2022-01) for 10 minutes on ice to induce BCR signaling and then washed in PBS. Ramos cells were then lysed in Cell Extraction Buffer (Invitrogen FNN0011) supplemented with Roche complete protease inhibitor tablets (Roche 11697498001) and phosphatase inhibitors (Roche 04 906 837 001) and 18 ug total protein lysate was loaded in each lane. Inhibition of BTK kinase activity was assayed by measuring its substrate (PLCγ2) phosphorylation by western blot with phospho-specific antibodies from Cell Signaling Technologies cat #3871. The results of this experiment with compounds I-2, I-4 and I-7 are depicted in FIGS. 1, 2 and 3.

BTK = BTK (Homo sapiens (Human), UniProt Q06187); assay: Mass spectrometry for BTK (intact protein); format: binding; conditions: 1 hr, 10× fold excess of compound
Chain of BTK (Q06187 whole entry): as above
Procedure: Mass Spectrometry for BTK
Intact BTK was incubated for 1 hr at a 10× fold excess of I-7 to protein. Aliquots (2 μl) of the samples were diluted with 10 μl of 0.1% TFA prior to micro C4 ZipTipping directly onto the MALDI target using Sinapinic acid as the desorption matrix (10 mg/ml in 0.1% TFA:Acetonitrile 20:80).

TEC kinase = TEC kinase (Homo sapiens (Human), UniProt P42680); assay: Mass spectrometry for TEC kinase (tryptic digest); format: binding; conditions: 3 hrs at 10× excess, tryptic digestion
Chain of TEC kinase (P42680 whole entry): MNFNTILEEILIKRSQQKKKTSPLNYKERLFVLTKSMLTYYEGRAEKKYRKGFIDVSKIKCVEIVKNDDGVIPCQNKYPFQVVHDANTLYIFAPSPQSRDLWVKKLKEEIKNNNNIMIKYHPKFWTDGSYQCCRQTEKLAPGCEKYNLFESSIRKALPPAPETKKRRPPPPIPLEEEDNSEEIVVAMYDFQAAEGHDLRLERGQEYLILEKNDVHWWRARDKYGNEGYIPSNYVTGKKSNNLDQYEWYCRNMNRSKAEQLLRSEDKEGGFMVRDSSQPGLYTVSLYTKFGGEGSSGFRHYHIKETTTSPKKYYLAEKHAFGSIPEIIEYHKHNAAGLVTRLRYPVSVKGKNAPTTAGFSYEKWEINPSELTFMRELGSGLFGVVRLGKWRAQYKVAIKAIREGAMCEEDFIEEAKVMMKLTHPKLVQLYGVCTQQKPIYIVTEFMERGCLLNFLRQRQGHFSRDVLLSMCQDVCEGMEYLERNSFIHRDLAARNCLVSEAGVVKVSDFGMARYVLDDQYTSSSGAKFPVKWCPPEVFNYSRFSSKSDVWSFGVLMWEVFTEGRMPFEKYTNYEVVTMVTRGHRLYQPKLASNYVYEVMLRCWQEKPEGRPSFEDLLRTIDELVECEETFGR
Procedure: Mass Spectrometry for TEC Kinase (Compound I-2)
TEC kinase (45 pmols; Invitrogen) was incubated with (I-2) (450 pmols) for 3 hrs at 10× excess prior to tryptic digestion. Iodoacetamide was used as the alkylating agent after compound incubation. […] For tryptic digests a 5 ul aliquot (7.5 pmols) was diluted with 15 ul of 0.1% TFA prior to micro C18 Zip Tipping directly onto the MALDI target using alpha cyano-4-hydroxy cinnamic acid as the matrix (5 mg/ml in 0.1% TFA:Acetonitrile 50:50).
as §1
TEC kinase (45 pmols; Invitrogen) was incubated with (I-4) (450 pmols) for 3 hrs at 10× excess prior to tryptic digestion. Iodoacetamide was used as the alkylating agent after compound incubation. […] For tryptic digests a 5 ul aliquot (7.5 pmols) was diluted with 15 ul of 0.1% TFA prior to micro C18 Zip Tipping directly onto the MALDI target using alpha cyano-4-hydroxy cinnamic acid as the matrix (5 mg/ml in 0.1% TFA:Acetonitrile 50:50).
For tryptic digests the instrument was set in Reflectron mode with a pulsed extraction setting of 1800. Calibration was done using the Laser Biolabs Pep Mix standard ([…], 1296.69, 1672.92, 2093.09, 2465.20). For CID/PSD analysis the peptide was selected using cursors to set ion gate timing and fragmentation occurred at a laser power about 20% higher and He was used as the collision gas for CID. Calibration for fragments was done using the P14R fragmentation calibration for the Curved field Reflectron.
TEC kinase (45 pmols; Invitrogen) was incubated with […] (450 pmols) for 3 hrs at 10× excess prior to tryptic digestion. […]

BTK in Ramos cells [4] = target: T1, BTK in Ramos cells; assay: Washout experiment with I-7 and probe compound I-215 in Ramos cells; format: cell-based; conditions: 0.1 μM, 1 hour, then washout
Procedure: Washout Experiment with I-7 and Probe Compound I-215
Ramos cells were incubated with 0.1 μM I-7 or a reversible BTK inhibitor control compound in serum free media for 1 hour at 37° C. The cells were then washed in compound-free media and lysed 0, 4, 6, or 8 hours after compound removal. Cell lysates were incubated with 1 μM I-215 for 1 hour at room temperature, then overnight at 4° C. with streptavidin-coupled agarose beads. Protein was boiled off the beads and BTK association was assessed by western blot. […] In contrast, with the reversible inhibitor control, 45% of BTK protein is unbound and available to the probe at 0 hours and by 4 hours 100% of BTK protein is unbound and available to bind the probe. All samples were normalized to the DMSO-treated cells harvested at 0 hours.

Q: C=CC(=O)Nc1cccc(Nc2nc(Nc3ccccc3)ncc2C)c1 [Compound I-7, N-(3-(5-methyl-2-(phenylamino)pyrimidin-4-ylamino)phenyl) acrylamide] was tested. Which IC50 [1] did it give?
A: < 10 nM

Q: And the “modification of JAK3 kinase by mass spectrometry” value (JAK3 kinase)?
A: not entirely complete

Q: And the “>50% occupancy (concentration)” value (BTK in Ramos cells [2])?
A: A (greater than 1 nM)

Q: What about the “>90% occupancy (concentration)” value (BTK in Ramos cells [2]) of the same compound?
A: B (greater than 10 nM)

Q: What about the “BTK Inhibition Type” value [3] of the same compound?
A: irreversible

Q: And the “modification of BTK by mass spectrometry” value (BTK)?
A: complete modification

Q: And the “covalent modification of TEC kinase peptide GCLLNFLR by mass spectrometry” value (TEC kinase)?
A: reaction was complete

Q: What about the “time BTK protein remains occupied after compound removal” value (BTK in Ramos cells [4]) of the same compound?
A: over 8 hours
